# Experiments:
# [1] = system: Pseudomonas F 41; assay: MIC, test tube series dilution test; assay type: cell-based; details: 24 hours, 37°C, liquid medium
# Description: |D(+) Dextrose (Merck) 10 g
# [2] = system: Pseudomonas Walter; assay: MIC, test tube series dilution test; details: 24 hours, 37°C, liquid medium
# [3] = system: E.coli B; assay: MIC, test-tube dilution method; assay type: cell-based
# [4] = system: E.coli 14; assay: Freedom from cloudiness in Muller-Hinton broth; assay type: cell-based; details: 100 μg/ml, 24 hours
# [5] = system: E.coli C 165; assay: Freedom from cloudiness in Muller-Hinton broth; assay type: cell-based; details: 100 μg/ml, 24 hours
# [6] = system: Proteus vulgaris 1017; assay: Freedom from cloudiness in Muller-Hinton broth; assay type: cell-based; details: 100 μg/ml, 24 hours
# [7] = system: Klebsiella K 10; assay: Freedom from cloudiness in Muller-Hinton broth; assay type: cell-based; details: 100 μg/ml, 24 hours
# [8] = system: Klebsiella 63; assay: Freedom from cloudiness in Muller-Hinton broth; assay type: cell-based; details: 100 μg/ml, 24 hours
# [9] = system: Enterobacter sp.; assay: Freedom from cloudiness in Muller-Hinton broth; assay type: cell-based; details: 100 μg/ml, 24 hours
# [10] = system: Serratia sp.; assay: Freedom from cloudiness in Muller-Hinton broth; assay type: cell-based; details: 100 μg/ml, 24 hours
# [11] = system: Proteus, indole-negative, sp.; assay: Freedom from cloudiness in Muller-Hinton broth; assay type: cell-based; details: 100 μg/ml, 24 hours
# [12] = system: Proteus, indole-positive, sp.; assay: Freedom from cloudiness in Muller-Hinton broth; assay type: cell-based; details: 100 μg/ml, 24 hours
# [13] = system: Pasteurella psuedotuberculosis; assay: Freedom from cloudiness in Muller-Hinton broth; assay type: cell-based; details: 100 μg/ml, 24 hours
# Experimental: (§1) The compounds of the invention are also active against other genera of bacteria. This is shown by the following experiment, which was carried out with the compound of Example 1.
# (§2) The compound of Example 1 was diluted to 100 μg/ml with Muller-Hinton nutrient broth, with the addition of 0.1% glucose. The nutrient solution in each case contained 1 × 10^5 to 2 × 10^5 bacteria per milliliter. The test tubes containing this mixture was incubated for 24 hours in each case and the degree of cloudiness was subsequently determined.
# [14] = system: Salmonella sp.; assay: Freedom from cloudiness in Muller-Hinton broth; assay type: cell-based; details: 100 μg/ml, 24 hours
# Experimental: as §1, §2
# [15] = system: Shigella sp.; assay: Freedom from cloudiness in Muller-Hinton broth; assay type: cell-based; details: 100 μg/ml, 24 hours
# Experimental: as §1, §2
# [16] = system: Brucella sp.; assay type: cell-based; details: 100 μg/ml, 24 hours
# [17] = system: Haemophilus influenzae; assay: Freedom from cloudiness in Muller-Hinton broth; assay type: cell-based; details: 100 μg/ml, 24 hours
# [18] = system: Bordetella bronchiseptica; assay: Freedom from cloudiness in Muller-Hinton broth; assay type: cell-based; details: 100 μg/ml, 24 hours
# [19] = system: Bacteroides sp.; assay: Freedom from cloudiness in Muller-Hinton broth; assay type: cell-based; details: 100 μg/ml, 24 hours
# [20] = system: Staphylococcus aureus 133; assay: Freedom from cloudiness in Muller-Hinton broth; assay type: cell-based; details: 100 μg/ml, 24 hours
# [21] = system: Neisseria catarrhalis sp.; assay: Freedom from cloudiness in Muller-Hinton broth; assay type: cell-based; details: 100 μg/ml, 24 hours
# [22] = system: Diplococcus pneumoniae sp.; assay: Freedom from cloudiness in Muller-Hinton broth; assay type: cell-based; details: 100 μg/ml, 24 hours
# [23] = system: Streptococcus pyogenes W; assay: Freedom from cloudiness in Muller-Hinton broth; assay type: cell-based; details: 100 μg/ml, 24 hours
# [24] = system: Enterococcus sp.; assay: Freedom from cloudiness in Muller-Hinton broth; assay type: cell-based; details: 100 μg/ml, 24 hours
# [25] = system: Lactobacillus sp.; assay: Freedom from cloudiness in Muller-Hinton broth; assay type: cell-based; details: 100 μg/ml, 24 hours
# [26] = system: Corynebacterium diphteriae gravis; assay: Freedom from cloudiness in Muller-Hinton broth; assay type: cell-based; details: 100 μg/ml, 24 hours
# [27] = system: Corynebacterium pyogenes M; assay: Freedom from cloudiness in Muller-Hinton broth; assay type: cell-based; details: 100 μg/ml, 24 hours
# [28] = system: Clostridium botulinium; assay type: cell-based; details: 100 μg/ml, 24 hours
# [29] = system: Clostridium tetani; assay type: cell-based; details: 100 μg/ml, 24 hours
# [30] = system: Borrelia sp.; assay: Freedom from cloudiness in Muller-Hinton broth; assay type: cell-based; details: 100 μg/ml, 24 hours
# [31] = system: Pseudomonas aeruginosa sp.; assay: Freedom from cloudiness in Muller-Hinton broth; assay type: cell-based; details: 100 μg/ml, 24 hours
# [32] = system: Aeromonas hydrophila sp.; assay: Freedom from cloudiness in Muller-Hinton broth; assay type: cell-based; details: 100 μg/ml, 24 hours
# [33] = system: E. coli C 165; assay: Animal experiments with white mice infected intraperitoneally; assay type: in vivo, white mice of strain CF1; details: subcutaneously, 1 × (1 administration, 30 minutes after infection)
# Experimental: (§3) The white mice of strain CF1 were infected intraperitoneally with the species of bacteria indicated in each case. |Animal experiments with white mice: |Determination of the ED50 after 24 hours. | Dose in units of the | penicillin compound of | Example 1 per kg, given |Germ subcutaneously |Therapy: | 1 administration: | 30 minutes after infection The ED50 is a dose at which 50% of the infected animals still survive after 24 hours.
# [34] = system: Staphyloccus aureus; assay: as above; assay type: in vivo, white mice of strain CF1; details: subcutaneously, 1 × (1 administration, 30 minutes after infection)
# Experimental: as §3
# [35] = system: Pseudomonas aeruginosa F 41; assay: as above; assay type: in vivo, white mice of strain CF1; details: subcutaneously, 4 × (per administration; 30 minutes, 2, 4 and 6 hours after infection)
# Experimental: as §3, with “4 administrations:” for “1 administration:”, “minutes, 2 hours, 4 hours | and 6 hours” for “minutes”
# [36] = system: Pseudomonas aeruginosa W; assay: as above; assay type: in vivo, white mice of strain CF1; details: subcutaneously, 4 × (per administration; 30 minutes, 2, 4 and 6 hours after infection)
# Experimental: as §3, with “4 administrations:” for “1 administration:”, “minutes, 2 hours, 4 hours | and 6 hours” for “minutes”
# [37] = system: E.coli 26/6; assay: MIC, test-tube dilution method
# [38] = system: Proteus morg.; assay: MIC, test-tube dilution method
# [39] = system: Proteus vulg.; assay: MIC, test-tube dilution method
# [40] = system: Klebsiella pneum.; assay: MIC, test-tube dilution method
# [41] = system: Staph.aureus 133; assay: MIC, test-tube dilution method
# [42] = system: Enterococcus ATCC 9790; assay: MIC, test-tube dilution method
# [43] = Solubility noted during working up; assay type: physicochemical
# Description: Yield 42% of sodium D(-) -α-[(3-oxo-4-methyl-pyrazolidin-1-yl)-carbonylamino]-benzylpenicillin.
structure (smiles),measurement,setting,value
"CC1(C)S[C@@H]2[C@H](NC(=O)[C@H](NC(=O)n3cc(-c4ccccc4)c(=O)[nH]3)c3ccccc3)C(=O)N2[C@H]1C(=O)O [Example 2 C, sodium D(-)-α-[(4-phenyl-5-oxo-3-pyrazolin-2-yl)-carbonylamino]-penzylpenicillin]",MIC,[1],4 μ/ml
same,MIC,[2],4 μ/ml
"CC1(C)S[C@@H]2[C@H](NC(=O)C(C(=O)O)c3ccccc3)C(=O)N2[C@H]1C(=O)O (stereo partly drawn) [Carbenicillin, reference compound]",MIC,[1],> 200 μ/ml
same,MIC,[2],200 μ/ml
"Cc1cn(C(=O)N[C@@H](C(=O)N[C@@H]2C(=O)N3[C@@H]2SC(C)(C)[C@@H]3C(=O)O)c2ccc(O)cc2)[nH]c1=O [Example 8, Sodium D(-)-α-[(4-methyl-5-oxo-3-pyrazolin-2-yl)-carbonylamino]-p-hydroxybenzylpenicillin]",MIC,[1],8 - 16 μ/ml
same,MIC,[2],8 μ/ml
"CC1CN(C(=O)N[C@@H](C(=O)N[C@@H]2C(=O)N3[C@@H]2SC(C)(C)[C@@H]3C(=O)O)c2ccccc2)NC1=O (single isomer, unassigned) [Example 11 C, sodium D(-) -α-[(3-oxo-4-methyl-pyrazolidin-1-yl)-carbonylamino]-benzylpenicillin]",MIC,[2],16 - 64 μ/ml
"CC1(C)S[C@@H]2[C@H](NC(=O)[C@H](NC(=O)N3NC(=O)CC3c3ccccc3)c3ccccc3)C(=O)N2[C@H]1C(=O)O (single isomer, unassigned) [Example 14, sodium D(-)-α-[(3-oxo-5-phenyl-pyrazolidin-1-yl)-carbonylamino]-benzylpenicillin]",MIC,[2],4 - 16 μ/ml
"Cc1cn(C(=O)N[C@@H](C(=O)N[C@@H]2C(=O)N3[C@@H]2SC(C)(C)[C@@H]3C(=O)O)c2ccccc2)[nH]c1=O [Example 1 B, sodium D(-)-α-[(4-methyl-5-oxo-3-pyrazolin-2-yl)-carbonylamino]-benzylpenicillin]",MIC,[1],8 μ/ml
same,MIC,[3],32 U/ml
same,Freedom from cloudiness,[4],free of cloudiness
same,Freedom from cloudiness,[5],free of cloudiness
same,Freedom from cloudiness,[6],free of cloudiness
same,Freedom from cloudiness,[7],free of cloudiness
same,Freedom from cloudiness,[8],free of cloudiness
same,Freedom from cloudiness,[9],free of cloudiness
same,Freedom from cloudiness,[10],free of cloudiness
same,Freedom from cloudiness,[11],free of cloudiness
same,Freedom from cloudiness,[12],free of cloudiness
same,Freedom from cloudiness,[13],free of cloudiness
same,Freedom from cloudiness,[14],free of cloudiness
same,Freedom from cloudiness,[15],free of cloudiness
same,Freedom from cloudiness,[16],free of cloudiness
same,Freedom from cloudiness,[17],free of cloudiness
same,Freedom from cloudiness,[18],free of cloudiness
same,Freedom from cloudiness,[19],free of cloudiness
same,Freedom from cloudiness,[20],free of cloudiness
same,Freedom from cloudiness,[21],free of cloudiness
same,Freedom from cloudiness,[22],free of cloudiness
same,Freedom from cloudiness,[23],free of cloudiness
same,Freedom from cloudiness,[24],free of cloudiness
same,Freedom from cloudiness,[25],free of cloudiness
same,Freedom from cloudiness,[26],free of cloudiness
same,Freedom from cloudiness,[27],free of cloudiness
same,Freedom from cloudiness,[28],free of cloudiness
same,Freedom from cloudiness,[29],free of cloudiness
same,Freedom from cloudiness,[30],free of cloudiness
same,Freedom from cloudiness,[31],free of cloudiness
same,Freedom from cloudiness,[32],free of cloudiness
same,ED50 after 24 hours,[33],"200,000 units per kg"
same,ED50 after 24 hours,[34],"40,000 units per kg"
same,ED50 after 24 hours,[35],"100,000 units per kg"
same,ED50 after 24 hours,[36],"75,000 units per kg"
same,MIC,[37],1 U/ml
same,MIC,[38],128 U/ml
same,MIC,[39],128 U/ml
same,MIC,[40],128 U/ml
same,MIC,[41],0.5 U/ml
same,MIC,[42],32 U/ml
same,MIC,[2],8 μ/ml
"CC1(C)S[C@@H]2[C@H](NC(=O)[C@H](N)c3ccccc3)C(=O)N2[C@H]1C(=O)O [Ampicillin, α-aminobenzylpenicillin, reference compound]",MIC,[1],> 400 μ/ml
same,MIC,[2],> 400 μ/ml
"CC1CN(C(=O)N[C@@H](C(=O)N[C@@H]2C(=O)N3[C@@H]2SC(C)(C)[C@@H]3C(=O)O)c2ccccc2)NC1=O (single isomer, unassigned) [free penicillic acid, D(-)-α-[(3-oxo-4-methyl-pyrazolidin-1-yl)-carbonylamino]-benzylpenicillin]",solubility in ethyl acetate,[43]; ethyl acetate,sparingly soluble
same,solubility in water,[43]; water,sparingly soluble
"Cc1cn(C(=O)N[C@@H](C(=O)N[C@@H]2C(=O)N3[C@@H]2SC(C)(C)[C@@H]3C(=O)O)C2=CCC=CC2)[nH]c1=O [Example 9, Sodium D(-)-α-[(4-methyl-5-oxo-3-pyrazolin-2-yl)-carbonylamino]-α-(cyclohexa-1,4-dien-1-yl)-methylpenicillin]",MIC,[1],8 - 16 μ/ml
same,MIC,[2],16 - 32 μ/ml
"CC1(C)S[C@@H]2[C@H](NC(=O)[C@H](NC(=O)N3CCC(=O)N3)c3ccccc3)C(=O)N2[C@H]1C(=O)O [Example 10 C, Sodium D(-)-α-[(3-oxo-pyrazolidin-1-yl)-carbonylamino]-benzylpenicillin]",MIC,[2],8 - 16 μ/ml

# From US3993642A, “Penicillins” (Bayer Aktiengesellschaft, priority 1973, dated 1976)
